Molecules are shown by their SMILES. pKi: −log10 of the molar value. A value given as a limit tells only on which side of the number the result lay.

Chain of 5-hydroxytryptamine receptor 4 (O70528 whole entry): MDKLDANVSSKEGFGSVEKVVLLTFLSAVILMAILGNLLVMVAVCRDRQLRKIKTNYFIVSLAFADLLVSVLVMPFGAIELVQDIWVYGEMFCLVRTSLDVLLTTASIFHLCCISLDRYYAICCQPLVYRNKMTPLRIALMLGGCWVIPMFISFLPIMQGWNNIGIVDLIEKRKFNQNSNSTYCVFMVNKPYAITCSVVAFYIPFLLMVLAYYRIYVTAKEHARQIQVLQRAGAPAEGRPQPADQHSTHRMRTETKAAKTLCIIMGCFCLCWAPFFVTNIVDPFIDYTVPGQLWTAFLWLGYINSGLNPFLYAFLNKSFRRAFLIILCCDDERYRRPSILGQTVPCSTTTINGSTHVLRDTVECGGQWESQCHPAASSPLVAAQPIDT

The assay concerns the target 5-hydroxytryptamine receptor 4 (Cavia porcellus, UniProt O70528). The assay can be described thus: Displacement of [3H]-GR113808 from 5-HT4R in Dunkin-Hartley guinea pig straitum nuclear membranes after 30 mins by filter binding method.
`CCCCN1CCC(COC(=O)c2cc(Cl)nc3ccccc23)CC1`: the pKi was 9.07.
As to `COc1cc(C(=O)OCCN2CCC(NC(=O)OC(C)(C)C)CC2)c2ccccc2n1`, the negative logarithm of the Ki (pKi) was 6.52.
`CCCCN1CCC(CNC(=O)c2cc(OC)nc3ccccc23)CC1` gave a negative-log Ki (pKi) below 6.00.
For the compound `CCCCN1CCC(COC(=O)c2ccnc3ccccc23)CC1`, the negative-log Ki (pKi) is 8.82.
As to `COc1cc(C(=O)OCCN2CCCCC2)c2ccccc2n1`, the pKi was 7.82.
Take `O=C(NCCN1CCCCC1)c1cc(Cl)c2ccccc2n1`: the pKi was below 6.00.
Take `CCCCN1CCC(CNC(=O)c2cc(OC)c3ccccc3n2)CC1`: the negative-log Ki (pKi) is 6.83.
Compound `CCCCN1CCC(CNC(=O)c2ccc3cccc(O)c3n2)CC1` gave a pKi of 7.12.
In the case of `COc1cc(C(=O)OCCN2CCC(CO)CC2)c2ccccc2n1`, the negative logarithm of the Ki (pKi) is 8.10.
In turn, `CCCCN1CCC(COC(=O)c2cc(OC)nc3ccccc23)CC1` showed a negative-log Ki (pKi) of 9.21.
In the case of `CCCCN1CCC(COC(=O)c2cc(C3CC3)nc3ccccc23)CC1`, the negative-log Ki (pKi) was 9.36.
To `COc1cc(C(=O)NCCN2CCCCC2)c2ccccc2n1` belongs below 6.00; to `O=C(NCCCN1CCCCC1)c1cc(Cl)c2ccccc2n1`, below 6.00; to `CCCCN1CCC(CNC(=O)c2cc(Cl)c3ccccc3n2)CC1`, 7.41.
The same measure for `CCCCN1CCC(CCC(=O)c2cc(Cl)c(N)cc2OC)CC1`: 8.41.
